Reference: US9284543B2, “Neutral active soluble truncated PH20 polypeptides and uses thereof” (Halozyme, Inc., priority 2008, dated 2016)

Columns and labels:
[1] = system: HZ24-2B2 cells expressing rHuPH20; experiment: Treatment of rHuPH20-expressing cells with glycosylation inhibitors; type: cell-based, Chinese Hamster; details: for PH20 activity: With Tunicamycin; for Viable Cells: With Tunicamycin 5 μg/mL
Procedure: Briefly, 1×10^6 HZ24-2B2 cells expressing rHuPH20 (see Example 14 below) were seeded in 24 mL complete CD-CHO medium in two 125 mL flasks. Tunicamycin (dissolved in DMSO) or Kifunensine (freshly dissolved in water) was added to a final concentration of 5 μg/mL (containing 12 μL DMSO). As a control, one flask was seeded with 1×10^6 HZ24-2B2 cells expressing rHuPH20 and 12 μL DMSO was added as a vehicle control. Following addition of either tunicamycin or kifunensine, the cells were incubated for 4-6 hours at 37° C. with 5% CO2. Following expression, a 2 mL culture was removed and centrifuged for 5 minutes at 500 g. The supernatant was stored at 4° C. and the cell pellets were stored at −20° C. The remaining 22 mL cultures were centrifuged for 5 minutes at 500 g. The supernatant was stored at 4° C. The cells were resuspended in 22 mL complete CD-CHO medium in the original two 125 mL flasks. Tunicamycin or Kifunensine was added to the culture at a final concentration of 5 μg/mL and the cells were incubated at 37° C. with 5% CO2. Two mL (2 mL) cultures were removed from each flask at approximately every 24 hours post changing medium. For each time point, the supernatant was stored at 4° C. and the cell pellets were stored at −20° C. The expression of rHuPH20 was analyzed by Western blot analysis and the hyaluronidase activity was measured using the biotinylated HA enzymatic assay (as described in Examples 3 and 5 above).

[2] = Microtiter hyaluronidase activity assay with biotinylated-hyaluronic acid; type: biochemical; details: Table 6, 72 hour post transfection supernatant
Procedure: In Example 4, the hyaluronidase activity of truncated human PH20 hyaluronidase is determined using biotinylated hyaluronic acid. The free carboxyl groups on the glucuronic acid residues of hyaluronic acid are biotinylated, and the biotinylated hyaluronic acid substrate is covalently coupled to a microtiter plate. Following incubation with hyaluronidase, the residual biotinylated hyaluronic acid substrate is detected using an avidin-peroxidase reaction, and compared to that obtained following reaction with hyaluronidase standards of known activity. […] The sensitivity permits rapid measurement of hyaluronidase activity from cultured cells and biological samples with an inter-assay variation of less than 10%.
In this example, the human PH20 hyaluronidase carboxy-terminus deletion mutants were tested for their PH20 hyaluronidase activity using a microtiter assay with biotinylated-hyaluronic acid (biotinylated-HA or bHA). The human PH20 hyaluronidase carboxy-terminus deletion mutants were tested for hyaluronidase activity at both pH 7.4 and pH 5.5.
In short, a 4×BH 96-well plate was coated with biotinylated-HA (1.1 MDa). The 72 hour post transfection supernatant from cells transfected with human PH20 hyaluronidase carboxy-terminus deletion mutants was diluted in buffer at either pH 7.4 or pH 5.5 and added to individual wells of the plate and allowed to incubate at 37° C. for 90 minutes. The reaction was terminated by addition of 4M guanidine HCl. The wells were washed 4× with Phosphate Buffered Saline with Tween20 (PBST) to remove any digested biotinylated-HA followed by addition of streptavidin-HRP for 1 hour at room temperature. The wells were washed 4× with PBST and the plate was developed with TMB. The plate was read at 450 nm using an ELISA plate reader. Hyaluronidase activity (in Units/mL) was determined by interpolating the measured absorbance at 450 nm with a hyaluronidase reference standard curve. Full length mature human PH20 hyaluronidase and untransfected CHO cells were used as positive and negative controls.

[3] = system: CHO-S cells; experiment: Western blot analysis of PH20 expression in media and cells after transient expression; type: cell-based, Chinese Hamster; details: media versus cells
Procedure: The mutant PH20-HZ24 plasmids generated in Example 1 were transiently […] into CHO—S cells (derived from Chinese Hamster Ovary CHO K1 cells) using GeneJuice® (Novagen) according to the manufacturer's instructions. In short, the CHO—S cells were grown in CD CHO medium supplemented with L-glutamine. Prior to transfection, the CHO—S cells were plated in 6-well plates, with approximately 5×10^5 cells per well, and grown overnight at 37° C. with 5% CO2. The medium was then removed and the CHO—S cells were washed 2 times with 1 mL serum-free medium. GeneJuice® was mixed with serum-free media followed by the addition of 2 μg mutant-HZ24 DNA. After incubating at room temperature for 5-15 minutes, the GeneJuice®/DNA mixture was added dropwise to an individual well containing the washed CHO—S cells. After 4 hours, the medium was replaced with 1 mL CD-CHO medium supplemented with L-glutamine and the cells were incubated for 72 hours at 37° C. with 5% CO2. Following expression, the media and cells were harvested separately.
The mutant PH20-HZ24 plasmids generated in Example 1 were transiently […] into CHO—S cells using GeneJuice® (Novagen) according to the manufacturer's instructions. […]
In this example, following transient expression, as described in Example 2 above, the media and cells were harvested separately and analyzed for PH20 expression and solublility by Western blot analysis. Solubility of the C-terminus truncation mutants was determined by examining whether the expressed protein was present in the growth media or in the cells. […] Cells expressing these mutants were treated with phosphoinositol-phospholipase C (PI-PLC), which cleaves the GPI-anchor allowing the release of soluble protein into the media, and the presence of PH20 in the resulting media and cells was determined by Western blot analysis.
Non-reduced samples were run on a 4-20% Tris-Glycine gel and transferred to PVDF membrane using iBlot (Invitrogen). For the Western blot, rabbit anti-PH20 IgG (0.5 μg/mL) was used as the primary antibody and HRP-conjugated goat anti-rabbit IgG (0.1 ng/mL, Cat#DC03L, EMD) was used as the secondary antibody. Evidence of expression is determined by a band at approximately 66 kDa, corresponding to recombinant human PH20 hyaluronidase.

Tunicamycin
Effect on cell viability (in words) ([1]; 5 μg/mL): complete loss of cell viability | PH20 activity ([1]; Cell Pellets, 0 hours): 34.50 U/mL | PH20 activity ([1]; Cell Pellets, 1 hours): 38.00 U/mL | PH20 activity ([1]; Cell Pellets, 2 hours): 34.00 U/mL | PH20 activity ([1]; Cell Pellets, 4 hours): 18.00 U/mL | PH20 activity ([1]; Cell Pellets, 25 hours): 1.00 U/mL | PH20 activity ([1]; Cell Pellets, 49 hours): 0.80 U/mL | PH20 activity ([1]; Cell Pellets, 73 hours): 0.30 U/mL | PH20 activity ([1]; Cell Pellets, 91 hours): 0.30 U/mL | PH20 activity ([1]; Tissue Culture Media, 0 hours): 0.50 U/mL | PH20 activity ([1]; Tissue Culture Media, 1 hours): 2.80 U/mL | PH20 activity ([1]; Tissue Culture Media, 2 hours): 5.00 U/mL | PH20 activity ([1]; Tissue Culture Media, 4 hours): 8.80 U/mL | PH20 activity ([1]; Tissue Culture Media, 25 hours): 5.80 U/mL | PH20 activity ([1]; Tissue Culture Media, 49 hours): 6.80 U/mL | PH20 activity ([1]; Tissue Culture Media, 73 hours): 7.80 U/mL | PH20 activity ([1]; Tissue Culture Media, 91 hours): 7.50 U/mL | Viable Cells ([1]; 0 hours): 1.04 ×10^6 | Viable Cells ([1]; 1 hours): 1.04 ×10^6 | Viable Cells ([1]; 2 hours): 1.04 ×10^6 | Viable Cells ([1]; 4 hours): 0.910 ×10^6 | Viable Cells ([1]; 25 hours): 1.08 ×10^6 | Viable Cells ([1]; 49 hours): 0.200 ×10^6 | Viable Cells ([1]; 73 hours): 0.080 ×10^6 | Viable Cells ([1]; 91 hours): 0 ×10^6 | Accumulation of deglycosylated human PH20 inside the cell ([1]; one hour of treatment, SDS-PAGE mobility shift to approximately 56 kDa in cell pellet fractions): accumulation of deglycosylated human PH20 hyaluronidase inside the cell | Effect on PH20 activity (in words) ([1]; tissue culture media and inside the cell, 5 μg/mL): inhibits PH20 activity

B1: SPAM1-DAFL: C-terminally truncated human PH20, precursor 469 aa (SEQ ID NO:31), mature 434 aa (SEQ ID NO:83) (protein, listed as Homo sapiens)
chain 1: MGVLKFKHIFFRSFVKSSGVSQIVFTFLLIPCCLTLNFRAPPVIPNVPFLWAWNAPSEFCLGKFDEPLDMSLFSFIGSPRINATGQGVTIFYVDRLGYYPYIDSITGVTVNGGIPQKISLQDHLDKAKKDITFYMPVDNLGMAVIDWEEWRPTWARNWKPKDVYKNRSIELVQQQNVQLSLTEATEKAKQEFEKAGKDFLVETIKLGKLLRPNHLWGYYLFPDCYNHHYKKPGYNGSCFNVEIKRNDDLSWLWNESTALYPSIYLNTQQSPVAATLYVRNRVREAIRVSKIPDAKSPLPVFAYTRIVFTDQVLKFLSQDELVYTFGETVALGASGIVIWGTLSIMRSMKSCLLLDNYMETILNPYIINVTLAAKMCSQVLCQEQGVCIRKNWNSSDYLHLNPDNFAIQLEKGGKFTVRGKPTLEDLEQFSEKFYCSCYSTLSCKEKADVKDTDAVDVCIADGVCIDAFL
chain 2: LNFRAPPVIPNVPFLWAWNAPSEFCLGKFDEPLDMSLFSFIGSPRINATGQGVTIFYVDRLGYYPYIDSITGVTVNGGIPQKISLQDHLDKAKKDITFYMPVDNLGMAVIDWEEWRPTWARNWKPKDVYKNRSIELVQQQNVQLSLTEATEKAKQEFEKAGKDFLVETIKLGKLLRPNHLWGYYLFPDCYNHHYKKPGYNGSCFNVEIKRNDDLSWLWNESTALYPSIYLNTQQSPVAATLYVRNRVREAIRVSKIPDAKSPLPVFAYTRIVFTDQVLKFLSQDELVYTFGETVALGASGIVIWGTLSIMRSMKSCLLLDNYMETILNPYIINVTLAAKMCSQVLCQEQGVCIRKNWNSSDYLHLNPDNFAIQLEKGGKFTVRGKPTLEDLEQFSEKFYCSCYSTLSCKEKADVKDTDAVDVCIADGVCIDAFL
modifications: HuPH20 precursor 1-469; Mature HuPH20 36-469
pH 5.5 Activity [2]: 2.2365 Units/ml | pH 7.4 Activity [2]: 2.3895 Units/ml | Expressed in Media [3]: YES

B2: SPAM1-AFLK: C-terminally truncated human PH20, precursor 470 aa (SEQ ID NO:30), mature 435 aa (SEQ ID NO:82) (protein, listed as Homo sapiens)
chain: MGVLKFKHIFFRSFVKSSGVSQIVFTFLLIPCCLTLNFRAPPVIPNVPFLWAWNAPSEFCLGKFDEPLDMSLFSFIGSPRINATGQGVTIFYVDRLGYYPYIDSITGVTVNGGIPQKISLQDHLDKAKKDITFYMPVDNLGMAVIDWEEWRPTWARNWKPKDVYKNRSIELVQQQNVQLSLTEATEKAKQEFEKAGKDFLVETIKLGKLLRPNHLWGYYLFPDCYNHHYKKPGYNGSCFNVEIKRNDDLSWLWNESTALYPSIYLNTQQSPVAATLYVRNRVREAIRVSKIPDAKSPLPVFAYTRIVFTDQVLKFLSQDELVYTFGETVALGASGIVIWGTLSIMRSMKSCLLLDNYMETILNPYIINVTLAAKMCSQVLCQEQGVCIRKNWNSSDYLHLNPDNFAIQLEKGGKFTVRGKPTLEDLEQFSEKFYCSCYSTLSCKEKADVKDTDAVDVCIADGVCIDAFLK
modifications: HuPH20 precursor 1-470
pH 5.5 Activity [2]: 2.925 Units/ml | pH 7.4 Activity [2]: 3.204 Units/ml | Expressed in Media [3]: YES
